Measured values from patent US20220402950A1, “SUBSTITUTED BENZIMIDAZOLES AS PAD4 INHIBITORS” (BRISTOL-MYERS SQUIBB COMPANY, priority 2018, published 2022).
Like-named read-outs stand apart in the source and are kept apart here.

Target: human PAD4 (hPAD4) (Homo sapiens, UniProt Q9UM07)
Assay: RFMS Human PAD4 Functional Assay
Type: biochemical
Conditions: 5 nM hPAD4, 250 μM BAEE
Method in brief: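 RapidFire ESI-MS quantification, normalised to a modified-citrulline internal standard, after phenyl glyoxal (final 4 mM) derivatisation of the TCA-quenched reaction. The enzyme (10 nM) sat 30 min with compound (up to 50 μM final) before 500 μM BAEE (as added) started a 90 min, 37 °C reaction. Buffer: HEPES pH 7.5, 50 μM calcium, 5 μM TPEN.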

[1] = hPAD4 RFMS IC50, human PAD4, rapid-fire mass spectrum (RFMS) assay
[2] = human PAD4, rapid-fire mass spectrum (RFMS) assay, read-out: hPAD4 RFMS IC50

human PAD4 (hPAD4), sequence (Q9UM07 whole entry): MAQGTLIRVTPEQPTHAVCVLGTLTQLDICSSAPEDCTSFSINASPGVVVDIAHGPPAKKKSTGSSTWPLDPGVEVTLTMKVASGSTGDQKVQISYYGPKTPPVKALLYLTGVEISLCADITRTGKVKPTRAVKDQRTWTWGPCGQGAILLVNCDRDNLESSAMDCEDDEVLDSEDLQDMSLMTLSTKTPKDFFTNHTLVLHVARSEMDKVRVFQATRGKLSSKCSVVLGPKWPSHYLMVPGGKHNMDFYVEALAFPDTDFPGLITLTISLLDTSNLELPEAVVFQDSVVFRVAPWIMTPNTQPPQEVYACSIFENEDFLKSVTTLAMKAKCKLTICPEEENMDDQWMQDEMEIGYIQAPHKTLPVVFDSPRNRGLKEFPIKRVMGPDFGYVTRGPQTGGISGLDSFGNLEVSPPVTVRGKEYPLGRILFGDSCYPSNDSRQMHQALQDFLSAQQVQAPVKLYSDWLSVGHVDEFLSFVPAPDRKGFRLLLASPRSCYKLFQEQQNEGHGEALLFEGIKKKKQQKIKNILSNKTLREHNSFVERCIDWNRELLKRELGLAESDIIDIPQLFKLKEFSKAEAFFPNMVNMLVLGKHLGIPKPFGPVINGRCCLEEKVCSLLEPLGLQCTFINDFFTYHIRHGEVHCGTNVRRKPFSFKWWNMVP

Row | SMILES | IC50 [1] | IC50 [2]
1 | CCOP(=O)(OCC)c1cccc2cc(-c3nc4cc(C(=O)N5C[C@H]6CC[C@@H]5[C@@H]6N)cc(OC)c4n3C)n(CC3CC3)c12 [Example 107, diethyl (2-{5-[(1R,4R,7R)-7-amino-2-azabicyclo[2.2.1]heptane-2-carbonyl]-7-methoxy-1-methyl-1H-1,3-benzodiazol-2-yl}-1-(cyclopropylmethyl)-1H-indol-7-yl)phosphonate] |  | 86 nM
2 | COc1cc(C(=O)N2C[C@H]3CC[C@@H]2[C@@H]3N)cc2nc(-c3cc4cccc(-n5cc([C@H]6CC[C@H](N)CC6)nn5)c4n3CC3CC3)n(C)c12 [Example 109, (1R,4R,7R)-2-{2-[1-(cyclopropylmethyl)-7-{4-[(1r,4r)-4-aminocyclohexyl]-1H-1,2,3-triazol-1-yl}-1H-indol-2-yl]-7-methoxy-1-methyl-1H-1,3-benzodiazole-5-carbonyl}-2-azabicyclo[2.2.1]heptan-7-amine] |  | 175 nM
3 | COc1cc(C(=O)N2C[C@H]3CC[C@@H]2[C@@H]3N)cc2nc(-c3cc4cccc(-n5cc(C6CNC6)nn5)c4n3CC3CC3)n(C)c12 [Example 110, (1R,4R,7R)-2-(2-{7-[4-(azetidin-3-yl)-1H-1,2,3-triazol-1-yl]-1-(cyclopropylmethyl)-1H-indol-2-yl}-7-methoxy-1-methyl-1H-1,3-benzodiazole-5-carbonyl)-2-azabicyclo[2.2.1]heptan-7-amine] |  | 137 nM
4 | CCOC(=O)c1ccccc1-c1cccc2cc(-c3nc4cc(C(=O)N5C[C@H]6CC[C@@H]5[C@@H]6N)cc(OC)c4n3C)n(CC3CC3)c12 [Example 123, ethyl 2-(2-(5-((1R,4R,7R)-7-amino-2-azabicyclo[2.2.1]heptane-2-carbonyl)-7-methoxy-1-methyl-1H-benzo[d]imidazol-2-yl)-1-(cyclopropylmethyl)-1H-indol-7-yl)benzoate] | 84 nM | 
5 | COc1cc(C(=O)N2CC3CCC2[C@@H]3N)cc2nc(-c3cc4cccc(-c5ccc6ccn(C)c6c5)c4n3CC3CC3)n(C)c12 (stereo partly drawn) [Example 126, ((7R)-7-amino-2-azabicyclo[2.2.1]heptan-2-yl)(2-(1′-(cyclopropylmethyl)-1-methyl-1H,1′H-[6,7′-biindol]-2′-yl)-7-methoxy-1-methyl-1H-benzo[d]imidazol-5-yl)methanone] | 110 nM | 
6 | COc1cc(C(=O)N2C[C@H]3CC[C@@H]2[C@@H]3N)cc2nc(-c3cc4cccc(-c5cc[nH]n5)c4n3CC3CC3)n(C)c12 [Example 127, ((1R,4R,7R)-7-amino-2-azabicyclo[2.2.1]heptan-2-yl)(2-(1-(cyclopropylmethyl)-7-(1H-pyrazol-3-yl)-1H-indol-2-yl)-7-methoxy-1-methyl-1H-benzo[d]imidazol-5-yl)methanone] | 82 nM | 
7 | C#CCOCC(O)Cn1cc(-c2cccc3cc(-c4nc5cc(C(=O)N6CC7CCC6[C@@H]7N)cc(OC)c5n4C)n(CC4CC4)c23)cn1 (stereo partly drawn) [Example 128, ((7R)-7-amino-2-azabicyclo[2.2.1]heptan-2-yl)(2-(1-(cyclopropylmethyl)-7-(1-(2-hydroxy-3-(prop-2-yn-1-yloxy)propyl)-1H-pyrazol-4-yl)-1H-indol-2-yl)-7-methoxy-1-methyl-1H-benzo[d]imidazol-5-yl)methanone] | 130 nM | 
8 | COc1cc(C(=O)N2CC3CCC2[C@@H]3N)cc2nc(-c3cc4cccc(-c5ccoc5)c4n3CC3CC3)n(C)c12 (stereo partly drawn) [Example 129, ((7R)-7-amino-2-azabicyclo[2.2.1]heptan-2-yl)(2-(1-(cyclopropylmethyl)-7-(furan-3-yl)-1H-indol-2-yl)-7-methoxy-1-methyl-1H-benzo[d]imidazol-5-yl)methanone] | 194 nM | 
9 | COc1cc(C(=O)N2CC3CCC2[C@@H]3N)cc2nc(-c3cc4cccc(-c5ccco5)c4n3CC3CC3)n(C)c12 (stereo partly drawn) [Example 130, ((7R)-7-amino-2-azabicyclo[2.2.1]heptan-2-yl)(2-(1-(cyclopropylmethyl)-7-(furan-2-yl)-1H-indol-2-yl)-7-methoxy-1-methyl-1H-benzo[d]imidazol-5-yl)methanone] | 178 nM | 
10 | COc1cc(C(=O)N2C[C@H]3CC[C@@H]2[C@@H]3N)cc2nc(-c3cc4cccc(-c5cccs5)c4n3CC3CC3)n(C)c12 [Example 131, ((1R,4R,7R)-7-amino-2-azabicyclo[2.2.1]heptan-2-yl)(2-(1-(cyclopropylmethyl)-7-(thiophen-2-yl)-1H-indol-2-yl)-7-methoxy-1-methyl-1H-benzo[d]imidazol-5-yl)methanone] | 156 nM | 
11 | COc1cc(C(=O)N2CC3CCC2[C@@H]3N)cc2nc(-c3cc4cccc(-c5cnn(C6CCOCC6)c5)c4n3CC3CC3)n(C)c12 (stereo partly drawn) [Example 132, ((7R)-7-amino-2-azabicyclo[2.2.1]heptan-2-yl)(2-(1-(cyclopropylmethyl)-7-(1-(tetrahydro-2H-pyran-4-yl)-1H-pyrazol-4-yl)-1H-indol-2-yl)-7-methoxy-1-methyl-1H-benzo[d]imidazol-5-yl)methanone] | 179 nM | 
12 | COc1cc(C(=O)N2CC3CCC2[C@@H]3N)cc2nc(-c3cc4cccc(-c5cn(C)nc5-c5ccccc5F)c4n3CC3CC3)n(C)c12 (stereo partly drawn) [Example 135, ((7R)-7-amino-2-azabicyclo[2.2.1]heptan-2-yl)(2-(1-(cyclopropylmethyl)-7-(3-(2-fluorophenyl)-1-methyl-1H-pyrazol-4-yl)-1H-indol-2-yl)-7-methoxy-1-methyl-1H-benzo[d]imidazol-5-yl)methanone] | 96 nM | 

Now from value to compound:

Row | IC50 [1] | IC50 [2] | SMILES
13 | 99 nM |  | COC(=O)Nc1ccc(-c2cccc3cc(-c4nc5cc(C(=O)N6C[C@H]7CC[C@@H]6[C@@H]7N)cc(OC)c5n4C)n(CC4CC4)c23)cn1 [Example 105, methyl N-[5-(2-{5-[(1R,4R,7R)-7-amino-2-azabicyclo[2.2.1]heptane-2-carbonyl]-7-methoxy-1-methyl-1H-1,3-benzodiazol-2-yl}-1-(cyclopropylmethyl)-1H-indol-7-yl)pyridin-2-yl]carbamate]
14 | 61 nM |  | COc1cc(C(=O)N2C[C@H]3CC[C@@H]2[C@@H]3N)cc2nc(-c3cc4cccc(-c5ccc(NC(C)=O)nc5)c4n3CC3CC3)n(C)c12 [Example 106, N-[5-(2-{5-[(1R,4R,7R)-7-amino-2-azabicyclo[2.2.1]heptane-2-carbonyl]-7-methoxy-1-methyl-1H-1,3-benzodiazol-2-yl}-1-(cyclopropylmethyl)-1H-indol-7-yl)pyridin-2-yl]acetamide]
15 |  | 20 nM | COc1cc(C(=O)N2C[C@H]3CC[C@@H]2[C@@H]3N)cc2nc(-c3cc4cccc(-c5ccc(O)c(CO)c5)c4n3CC3CC3)n(C)c12 [Example 119, ((1R,4R,7R)-7-amino-2-azabicyclo[2.2.1]heptan-2-yl)(2-(1-(cyclopropylmethyl)-7-(4-hydroxy-3-(hydroxymethyl)phenyl)-1H-indol-2-yl)-7-methoxy-1-methyl-1H-benzo[d]imidazol-5-yl)methanone]
16 |  | 65 nM | COc1cc(C(=O)N2C[C@H]3CC[C@@H]2[C@@H]3N)cc2nc(-c3cc4cccc(-c5ccc(O)c(C(N)=O)c5)c4n3CC3CC3)n(C)c12 [Example 120, 5-(2-(5-((1R,4R,7R)-7-amino-2-azabicyclo[2.2.1]heptane-2-carbonyl)-7-methoxy-1-methyl-1H-benzo[d]imidazol-2-yl)-1-(cyclopropylmethyl)-1H-indol-7-yl)-2-hydroxybenzamide]
17 |  | 753 nM | COc1cc(C(=O)N2C[C@H]3CC[C@@H]2[C@@H]3N)cc2nc(-c3cc4cccc(-c5ccc(O)c(C(=O)O)c5)c4n3CC3CC3)n(C)c12 [Example 121, 5-(2-(5-((1R,4R,7R)-7-amino-2-azabicyclo[2.2.1]heptane-2-carbonyl)-7-methoxy-1-methyl-1H-benzo[d]imidazol-2-yl)-1-(cyclopropylmethyl)-1H-indol-7-yl)-2-hydroxybenzoic Acid]
18 |  | 57 nM | COc1cc(C(=O)N2C[C@H]3CC[C@@H]2[C@@H]3N)cc2nc(-c3cc4cccc(-c5cnn(C)c5)c4n3CC3CC3)n(C)c12 [Example 122, ((1R,4R,7R)-7-amino-2-azabicyclo[2.2.1]heptan-2-yl)(2-(1-(cyclopropylmethyl)-7-(1-methyl-1H-pyrazol-4-yl)-1H-indol-2-yl)-7-methoxy-1-methyl-1H-benzo[d]imidazol-5-yl)methanone]
19 | 25 nM |  | COc1cc(C(=O)N2C[C@H]3CC[C@@H]2[C@@H]3N)cc2nc(-c3cc4cccc(-c5ccc(C(N)=O)cc5)c4n3CC3CC3)n(C)c12 [Example 124, 4-(2-(5-((1R,4R,7R)-7-amino-2-azabicyclo[2.2.1]heptane-2-carbonyl)-7-methoxy-1-methyl-1H-benzo[d]imidazol-2-yl)-1-(cyclopropylmethyl)-1H-indol-7-yl)benzamide]
20 | 125 nM |  | COc1cc(C(=O)N2C[C@H]3CC[C@@H]2[C@@H]3N)cc2nc(-c3cc4cccc(-c5ccc(C(=O)N(C)C)cc5)c4n3CC3CC3)n(C)c12 [Example 125, 4-(2-(5-((1R,4R,7R)-7-amino-2-azabicyclo[2.2.1]heptane-2-carbonyl)-7-methoxy-1-methyl-1H-benzo[d]imidazol-2-yl)-1-(cyclopropylmethyl)-1H-indol-7-yl)-N,N-dimethylbenzamide]
21 | 121 nM |  | COc1cc(C(=O)N2CC3CCC2[C@@H]3N)cc2nc(-c3cc4cccc(-c5ccc(NC(C)=O)cc5)c4n3CC3CC3)n(C)c12 (stereo partly drawn) [Example 133, N-(4-(2-(5-((7R)-7-amino-2-azabicyclo[2.2.1]heptane-2-carbonyl)-7-methoxy-1-methyl-1H-benzo[d]imidazol-2-yl)-1-(cyclopropylmethyl)-1H-indol-7-yl)phenyl)acetamide]
22 | 155 nM |  | COc1cc(C(=O)N2CC3CCC2[C@@H]3N)cc2nc(-c3cc4cccc(-c5cccnc5)c4n3CC3CC3)n(C)c12 (stereo partly drawn) [Example 134, ((7R)-7-amino-2-azabicyclo[2.2.1]heptan-2-yl)(2-(1-(cyclopropylmethyl)-7-(pyridin-3-yl)-1H-indol-2-yl)-7-methoxy-1-methyl-1H-benzo[d]imidazol-5-yl)methanone]
